“And” between values parts separate entries of the source, which are not always exact repeats. Equal entries are not always repeated. Structures can show the parent of a compound that is named as a salt.

Series [1] has as its target T1, recombinant human adrenergic beta 1 receptors (Homo sapiens, UniProt P08588).
T1 construct: purchased Euroscreen
The series is described as follows: Adrenergic β1 selectivity binding assay ([125I]-Iodocyanopindolol). The following applies: inhibition of [125I]-Iodocyanopindolol binding; read-out: β1 bind p IC50. The method, then:
Membranes containing recombinant human adrenergic beta 1 receptors were obtained from Euroscreen. These were diluted in Assay Buffer (50 mM HEPES, 1 mM EDTA, 120 mM NaCl, 0.1% gelatin, pH 7.4) to provide a final concentration of membranes that gave a clear window between maximum and minimum specific binding.
Assays were performed in U-bottomed 96-well polypropylene plates. […] For each assay plate 8 replicates were obtained for [^125I]-Iodocyanopindolol binding in the presence of 10 μL vehicle (10% (v/v) DMSO in Assay Buffer; defining maximum binding) or 10 μL Propranolol (10 μM final concentration; defining non-specific binding (NSB)). Membranes were then added to achieve a final volume of 100 μL. […] Five washes with 250 μL wash buffer (50 mM HEPES, 1 mM EDTA, 120 mM NaCl, pH 7.4) were performed at 4° C. to remove unbound radioactivity. The plates were dried then sealed from underneath using Packard plate sealers and MicroScint-O (50 μL) was added to each well. The plates were sealed (TopSeal A) and filter-bound radioactivity was measured with a scintillation counter (TopCount, Packard BioScience) using a 3-minute counting protocol.
Total specific binding (B0) was determined by subtracting the mean NSB from the mean maximum binding. NSB values were also subtracted from values from all other wells.

The test system of series [2] is Methacholine-induced bronchoconstriction in the guinea pig. The series is described as follows: Lung function in anaesthetised guinea pigs: methacholine-induced bronchoconstriction. The following applies: 2 hours prior to methacholine, after 5 μg/kg methacholine i.v. The format is in vivo. The procedure: Evaluation of Lung Function in Anaesthetised Guinea Pigs.
Male Dunkin-Hartley guinea pigs (300-600 g) were weighed and dosed with vehicle (0.05M phosphate, 0.1% Tween 80, 0.6% saline, pH 6) or compound via the intratracheal route under recoverable gaseous anaesthesia (5% halothane in oxygen). Animals were dosed with compound or vehicle two hours prior to the administration of methacholine. Guinea pigs were anaesthetised with pentobarbitone (1 mL/kg of 60 mg/mL solution i.p.) approximately 30 minutes prior to the first bronchoconstrictor administration. The trachea was cannulated and the animal ventilated using a constant volume respiratory pump (Harvard Rodent Ventilator model 683) at a rate of 60 breath/min and a tidal volume of 5 mL/kg. A jugular vein was cannulated for the administration of methacholine or maintenance anaesthetic (0.1 mL of pentobarbitone solution, 60 mg/mL, as required).
The animals were transferred to a Flexivent System (SCIREQ, Montreal, Canada) in order to measure airway resistance. The animals were ventilated (quasi-sinusoidal ventilation pattern) at 60 breaths/min at a tidal volume of 5 mL/kg. A positive end expiratory pressure of 2-3 cm H2O was applied. Respiratory resistance was measured using the Flexivent “snapshot” facility (1 second duration, 1 Hz frequency). Once a stable baseline resistance value had been obtained the animals were given methacholine in ascending doses (0.5, 1, 2, 3 and 5 μg/kg, i.v) at approximately 4-minute intervals via the jugular catheter. After each administration of bronchoconstrictor the peak resistance value was recorded. Guinea pigs were euthanised with approximately 1.0 mL pentobarbitone sodium (Euthatal) intravenously after the completion of the lung function measurements.
Percentage bronchoprotection produced by a compound was calculated at each dose of brochoconstrictor as follows:
Where % change Rveh is the mean of the maximum percentage change in airway resistance in the vehicle treated group. The results reported were measured after 5 μg/kg methacholine and were expressed as percentage bronchoprotection (mean±s.e.mean).
Guinea pigs were dosed with vehicle, 3 and 27 μg/kg compound (BA1), 0.2 μg/kg compound (MA2) (Crystalline Form A) or a combination of 3 μg/kg Compound (BA1) and 0.2 μg/kg Compound (MA2) via the intratracheal route. Administration of increasing intravenous doses of methacholine (0.5, 1, 2, 3 and 5 μg/kg) evoked dose-related bronchoconstriction in the vehicle treated animals ranging from 13±2.6% at 0.5 μg/kg to 2530±280% at 5 μg/kg two hours after vehicle administration (n=9).
[…] Administration of increasing intravenous doses of methacholine (0.5, 1, 2, 3 and 5 μg/kg) evoked dose-related bronchoconstriction in the vehicle treated animals ranging from 14±2.6% at 0.5 μg/kg to 2240±269% at 5 μg/kg two hours after vehicle administration (n=10).

In another series the target is T2, Adrenergic β2 (Homo sapiens, UniProt P07550).
T2 construct: Adherent H292 cells were removed from tissue culture flasks; endogenous in cells; host or cells: H292 cells
Put plainly: Adrenergic β2 mediated cAMP production in H292 cells (AlphaScreen). In kind it is cell-based. The note with it: Intrinsic Activity as a fraction relative to the maximum activity of formoterol. The method, then: Adrenergic β2 Mediated cAMP Production
H292 cells were grown in 225 cm2 flasks incubator at 37° C., 5% CO2 in RPMI medium containing, 10% (v/v) FBS (foetal bovine serum) and 2 mM L-glutamine.
Adherent H292 cells were removed from tissue culture flasks by treatment with Accutase™ cell detachment solution for 15 minutes. Flasks were incubated for 15 minutes in a humidified incubator at 37° C., 5% CO2. Detached cells were re-suspended in RPMI media (containing 10% (v/v) FBS and 2 mM L-glutamine) at 0.05×10^6 cells per mL. 5000 cells in 100 μL were added to each well of a tissue-culture-treated 96-well plate and the cells incubated overnight in a humidified incubator at 37° C., 5% CO2. The culture media was removed and cells were washed twice with 100 μL assay buffer and replaced with 50 μL assay buffer (HBSS solution containing 10 mM HEPES pH7.4 and 5 mM glucose). Cells were rested at room temperature for 20 minutes after which time 25 μL of rolipram (1.2 mM made up in assay buffer containing 2.4% (v/v) dimethylsulphoxide) was added. Cells were incubated with rolipram for 10 minutes after which time Compound A was added and the cells were incubated for 60 minutes at room temperature. The final rolipram concentration in the assay was 300 μM and final vehicle concentration was 1.6% (v/v) dimethylsulphoxide. The reaction was stopped by removing supernatants, washing once with 100 μL assay buffer and replacing with 50 μL lysis buffer. The cell monolayer was frozen at −80° C. for 30 minutes (or overnight).
The concentration of cAMP (cyclic adenosine monophosphate) in the cell lysate was determined using AlphaScreen™ methodology. […] The AlphaScreen™ signal was measured using an EnVision spectrophotometer (Perkin-Elmer Inc.) with the recommended manufacturer's settings. cAMP concentrations were determined by reference to a calibration curve determined in the same experiment using standard cAMP concentrations. […] Intrinsic Activity was expressed as a fraction relative to the maximum activity determined for formoterol in each experiment.
Background: Changes in cAMP serve as a functional read-out for many G protein-coupled receptors.

For series [3], the target named is T3, recombinant human α1D receptor (Homo sapiens, UniProt P25100).
T3 construct: expressed in transfected cells; host or cells: HEK293
T3 sequence (P25100 1-572): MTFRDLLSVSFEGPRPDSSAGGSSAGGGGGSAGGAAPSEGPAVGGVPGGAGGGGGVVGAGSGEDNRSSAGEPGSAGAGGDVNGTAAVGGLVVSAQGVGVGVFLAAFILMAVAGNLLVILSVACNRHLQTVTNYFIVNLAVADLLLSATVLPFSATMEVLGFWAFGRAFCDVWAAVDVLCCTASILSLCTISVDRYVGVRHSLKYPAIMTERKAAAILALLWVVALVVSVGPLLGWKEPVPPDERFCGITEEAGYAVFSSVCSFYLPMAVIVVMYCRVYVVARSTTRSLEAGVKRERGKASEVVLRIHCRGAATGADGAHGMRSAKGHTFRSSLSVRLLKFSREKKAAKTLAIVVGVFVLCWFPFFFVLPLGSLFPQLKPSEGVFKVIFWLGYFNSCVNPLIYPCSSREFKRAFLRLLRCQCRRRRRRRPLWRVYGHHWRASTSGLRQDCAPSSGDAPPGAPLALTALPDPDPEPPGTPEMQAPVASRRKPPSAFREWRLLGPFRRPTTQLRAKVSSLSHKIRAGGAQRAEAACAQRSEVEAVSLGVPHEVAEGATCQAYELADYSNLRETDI
Put plainly: Adrenergic α1D selectivity binding assay ([3H]-prazosin). The following applies: inhibition of [3H]-prazosin binding; read-out: α1 bind pIC50 (converted). The procedure: Membranes were prepared from human embryonic kidney 293 (HEK293) cells expressing recombinant human α1D receptor. These were diluted in Assay Buffer (50 mM HEPES, 1 mM EDTA, 0.1% gelatin, pH 7.4) to provide a final concentration of membranes that gave a clear window between maximum and minimum specific binding.
Assays were performed in U-bottomed 96-well polypropylene plates. 10 μL [^3H]-prazosin (0.3 nM final concentration) and 10 μL of Compound A (10× final concentration) were added to each test well. For each assay plate 8 replicates were obtained for [^3H]-prazosin binding in the presence of 10 μL vehicle (10% (v/v) DMSO in Assay Buffer; defining maximum binding) or 10 μL BMY7378 (10 μM final concentration; defining non-specific binding (NSB)). Membranes were then added to achieve a final volume of 100 μL. […] Five washes with 250 μL wash buffer (50 mM HEPES, 1 mM EDTA, pH 7.4) were performed at 4° C. to remove unbound radioactivity. […] The plates were sealed (TopSeal A) and filter-bound radioactivity was measured with a scintillation counter (TopCount, Packard BioScierice) using a 3-minute counting protocol.
Total specific binding (B0) was determined by subtracting the mean NSB from the mean maximum binding. […]

Series [4] can be described thus: Gravimetric vapour sorption (GVS). In kind it is physicochemical. The note with it: at 80% RH, ambient temperature. The method, then:
GVS profiles were measured using a Dynamic Vapour Sorption DVS-1 instrument. The solid sample ca. 1-5 mg was placed into a glass vessel and the weight of the sample was recorded during a dual cycle step method (40 to 90 to 0 to 90 to 0% relative humidity (RH), in steps of 10% RH). GVS profiles were recorded at ambient temperature.

Series [5] in a line: Deaggregation properties of micronised Salt Form A (Fine Particle Fraction). The format is physicochemical. The following applies: micronised material, across 0-75% RH. An excerpt:
‘Salt Form A’ was Micronised in a 50 mm jet mill, with ejector pressure 5 bar and milling pressure 1.5-2 bar, giving (90% yield). Particle size of the micronised material as determined by Malvern Laser Diffraction with dry powder feeder was d(0.1) 0.77 μm: d(0.5), 1.45μ: d(0.9): 2.65 μm.

Setting [6] is: BA1 27 μg/kg intratracheal, dihydrobromide.

T2 sequence (P07550 whole entry): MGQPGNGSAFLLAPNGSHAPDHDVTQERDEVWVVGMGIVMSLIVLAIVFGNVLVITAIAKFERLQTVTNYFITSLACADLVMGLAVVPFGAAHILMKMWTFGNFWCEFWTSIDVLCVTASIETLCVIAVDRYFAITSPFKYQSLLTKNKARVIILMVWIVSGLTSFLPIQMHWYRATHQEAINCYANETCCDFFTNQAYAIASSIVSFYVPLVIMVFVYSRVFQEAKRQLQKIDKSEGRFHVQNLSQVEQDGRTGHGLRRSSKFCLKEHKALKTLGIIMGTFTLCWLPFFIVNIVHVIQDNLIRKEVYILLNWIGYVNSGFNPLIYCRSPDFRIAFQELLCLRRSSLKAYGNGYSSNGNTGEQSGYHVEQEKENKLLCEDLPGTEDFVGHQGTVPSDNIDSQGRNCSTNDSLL
T1 sequence (P08588 whole entry): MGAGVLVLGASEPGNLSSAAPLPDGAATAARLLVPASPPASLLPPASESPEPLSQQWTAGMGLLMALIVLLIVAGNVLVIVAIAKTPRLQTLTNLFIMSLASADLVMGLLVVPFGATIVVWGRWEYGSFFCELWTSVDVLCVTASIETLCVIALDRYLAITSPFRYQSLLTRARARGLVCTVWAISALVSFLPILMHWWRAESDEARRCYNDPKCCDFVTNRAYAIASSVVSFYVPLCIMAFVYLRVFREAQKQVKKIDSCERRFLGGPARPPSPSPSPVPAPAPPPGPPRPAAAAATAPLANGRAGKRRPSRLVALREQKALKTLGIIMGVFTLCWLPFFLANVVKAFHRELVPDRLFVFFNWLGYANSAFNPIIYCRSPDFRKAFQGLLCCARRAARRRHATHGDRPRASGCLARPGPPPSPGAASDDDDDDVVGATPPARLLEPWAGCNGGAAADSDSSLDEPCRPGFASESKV

Turning to `CCN(CC)CCN(CCNCCc1ccc(O)c2[nH]c(=O)sc12)C(=O)CCOCCc1cccc2ccccc12` [BA1, N-[2-(Diethylamino)ethyl]-N-(2-{[2-(4-hydroxy-2-oxo-2,3-dihydro-1,3-benzothiazol-7-yl)ethyl]amino}ethyl)-3-[2-(1-naphthyl)ethoxy]propanamide dihydrobromide], the IC50 in series [1] is > 10 µM. In addition, the increase in resistance was 1380±333% in series [2] (BA1 1 μg/kg intratracheal); 2090±239% in series [2] (BA1 3 μg/kg intratracheal); 470±221% and 242±69% in series [2] (setting [6]). For the same molecule, the “inhibition of methacholine-induced bronchoconstriction” value in series [2] (BA1 1 μg/kg intratracheal) was 38%; in series [2] (BA1 3 μg/kg intratracheal), 17%; in series [2] (setting [6]), 81% and 89%. For the same molecule, the “β2 Int Act” value on Adrenergic β2 is 0.8.

Consider `CCN(CC)CCN(CCNCCc1ccc(O)c2[nH]c(=O)sc12)C(=O)CCOCCc1cccc(Cl)c1` [BA2, N-[2-(Diethylamino)ethyl]-N-(2-{[2-(4-hydroxy-2-oxo-2,3-dihydro-1,3-benzothiazol-7-yl)ethyl]amino}ethyl)-3-[2-(3-chlorophenyl)ethoxy]propanamide dihydrobromide], for which the IC50 in series [1] was > 10 µM; in series [3], > 0.794 µM. In addition, on Adrenergic β2, the “β2 Int Act” value was 0.7.

On to `O=c1[nH]c2c(O)ccc([C@@H](O)CNCCSCCCNCCc3ccccc3Cl)c2s1` [BA3, 7-[(1R)-2-({2-[(3-{[2-(2-Chlorophenyl)ethyl]amino}propyl)thio]ethyl}amino)-1-hydroxyethyl]-4-hydroxy-1,3-benzothiazol-2(3H)-one dihydrobromide], for which the “β2 Int Act” value at Adrenergic β2 was 0.8.

Take `C[N+](C)(CCOCc1ccc(Cl)cc1)Cc1cnc([C@](O)(c2ccccc2)C2CCCCC2)o1` [MA11 Salt Form A, [2-(4-chloro-benzyloxy)-ethyl]-[2-((R)-cyclohexyl-hydroxy-phenyl-methyl)-oxazol-5-ylmethyl]-dimethyl-ammonium hemi-naphthalene-1,5-disulfonate]: the GVS weight increase result in series [4] is listed as “less than 0.5 % w/w”. Moreover, the “Fine Particle Fraction (FPF)” value in series [5] is > 60%.

Source of the values: patent US20110046191A1, “COMBINATION OF A MUSCARINIC RECEPTOR ANTAGONIST AND A BETA-2-ADRENOCEPTOR AGONIST” (ARGENTA DISCOVERY LTD., priority 2007, published 2011).
